Test results reported in patent EP4620954A1, “CDK2 INHIBITOR, PREPARATION METHOD THEREFOR, AND USE THEREOF” (Shandong Luye Pharmaceutical Co., Ltd., priority 2022, dated 2024).
pIC50: −log10 of the molar value. Where two headings read alike, the source gives them in different places.

Key:
HCT116 cells = assay: Antagonistic effect assay against HCT116 cell proliferation (CellTitle-Glo); type: cell-based; conditions: Homo sapiens, HCT-116, 72 h treatment, 0.01-10.00 µM, read-out: Antiproliferative IC50
Procedure: Frozen HCT116 cells were rapidly transferred from liquid nitrogen to a 37 °C water bath and rapidly shaken for thawing. The cell suspension was transferred to a 15 mL centrifuge tube and centrifuged at 1500 rpm for 5 min, and the supernatant was discarded. The cell pellet was resuspended in RPMI-1640 complete medium (containing 10% fetal bovine serum and 1% penicillin/streptomycin) and transferred to a cell culture dish containing 10 mL of medium. The cells were cultured in an incubator at 37 °C/5% CO2. The cells were passaged after adhesion to the wall.
HCT116 cells in the logarithmic growth phase and in good condition were taken, digested with a trypsin solution, resuspended in a certain amount of RPMI-1640 complete medium to form a single-cell suspension, counted on a cell counting plate, and seeded into a 96-well white plate at a density of 800 cells/well. The plate was left to stand for 5 min and then incubated in an incubator at 37 °C/5% CO2 overnight. The next day, the cells were treated with the compound at different concentrations, and the control group was treated with DMSO at the corresponding concentration. The compound, dissolved in DMSO, was diluted in RPMI-1640 complete medium at a ratio of 1:1000 to obtain final concentrations of 10.00 µM, 3.33 µM, 1.11 µM, 0.37 µM, 0.12 µM, 0.04 µM, and 0.01 µM. Each group was set up with 3 replicate wells, and 100 µL of the treatment solution was added to each well. The plate was incubated in an incubator at 37 °C/5% CO2 for 72 h.
After 72 h of treatment, the CellTitle-Glo assay was performed. 100 µL of CellTitle-Glo solution was added to each well of the control and treatment groups. The plate was mixed on an oscillator for 2 min to induce cell lysis. The 96-well plate was incubated at room temperature for 10 min to stabilize the luminescence signal value. The luminescence signal was measured using a microplate reader. The DMSO-treated cell group was used as the control group, and 50% inhibitory concentration (IC50) was calculated according to the median effect equation as follows: [formula]
The IC50 values of the compounds were calculated using GraphPad Prism nonlinear fitting equation. Table 2. Results for the inhibitory effect of the compounds of the present disclosure on HCT116 cell proliferation

CDK1/Cyclin B = molecular target: T1, CDK1/Cyclin B (Homo sapiens, UniProt P06493); assay: CDK1 kinase activity assay (TR-FRET); type: biochemical
T1 construct: purchased Invitrogen PR4768C
Procedure: (§1) Compounds were dissolved in DMSO and serially diluted 3-fold to generate 11 concentrations. 100 nL of each compound was added to 384-well plates, followed by the addition of 5 µL of 2× CDK2/Cyclin E1 or CDK1/Cyclin B enzyme mixed solution. 5 µL of buffer (50 mM Hepes (pH 7.5), 10 mM MgCl2, 1 mM EDTA, 0.01% Brij-35, 2 mM DTT (prepared freshly)) was added to the complete inhibition control wells. The plates were centrifuged at 1000 rpm for 30 s and incubated at 23 °C for 15 min. Then, 5 µL of 2× MLight-MBP peptide (containing 10 µM ATP) was added to each well of each assay plate. The plates were centrifuged again at 1000 rpm for 30 s and incubated at 23 °C for 90 min.
(§2) After the incubation was completed, the reaction was stopped with a detection buffer containing 15 mM EDTA and 2 nM Eu-anti-P-MBP antibody. After centrifugation at 1000 rpm for about 1 min, the plates were incubated at 23 °C for 60 min and read on Perkin Elmer Envision.
(§3) The IC50 values of the compounds were calculated using GraphPad Prism nonlinear fitting equation. Table 1. Kinase activity assay

[1] = In-vitro liver microsomal stability, human; type: in vitro ADME; conditions: human liver microsomes 0.5 mg/mL, 1 µM, NADPH 1 mM, 37 °C
Procedure: (§4) Method: The metabolic stability of test substances was evaluated by using human, dog, and SD rat liver microsomes. The test substances were incubated with liver microsomes from different species and NADPH in a water bath at 37 °C. In the incubation system, the final concentration of the test or control sample was 1 µM, the final concentration of liver microsomes was 0.5 mg/mL, the final concentration of NADPH was 1 mM, and the final concentration of MgCl2 was 3 mM. At designated time points (5 min, 10 min, 20 min, 30 min, and 60 min), the reaction was stopped by adding a cold acetonitrile solution containing tolbutamide (at a concentration of 200 ng/mL) as an internal standard. For the 0-min sample, the stop solution was added before the addition of the NADPH working solution. Testosterone and dextromethorphan were used as positive control samples in the same conditions to assess the stability and reliability of the system. After sample pretreatment, semiquantitative analysis was performed using the LC-MS/MS method. The retention times of the analytes and internal standard, the acquisition of chromatograms and the integration of chromatograms were processed using software Analyst (AB Sciex, Framingham, Massachusetts, USA). The remaining percentage of the test samples after 60 min of incubation was calculated, and the test results are shown in Table 3. Table 3. Test data for the compounds of the present disclosure in human, dog, and rat liver microsomes

[2] = In-vitro liver microsomal stability, rat; type: in vitro ADME; conditions: SD rat liver microsomes 0.5 mg/mL, 1 µM, NADPH 1 mM, 37 °C
Procedure: as §4

CDK2/Cyclin E1 = molecular target: T2, CDK2/Cyclin E1 (Homo sapiens, UniProt P24941); assay: CDK2 kinase antagonistic activity assay (TR-FRET); type: biochemical
T2 construct: purchased Invitrogen PV6296
Procedure: as §1
as §2, with “Envision. The TR-FRET ratio (value at 665 nm/value at 615 nm) was automatically calculated by Envision.” for “Envision.”
as §3

[3] = In-vitro liver microsomal stability, dog; type: in vitro ADME; conditions: dog liver microsomes 0.5 mg/mL, 1 µM, NADPH 1 mM, 37 °C
Procedure: as §4

[4] = Permeability and transporter substrate evaluation, Caco-2 monolayer; type: in vitro ADME; conditions: human, Caco-2, 2.00 µM, 120 min
Procedure: Cell: Caco-2 cells Instrument: water purification equipment, ELGA LabWate; biosafety cabinet, Nuaire; thermostatic CO2 incubator, Thermo; microplate reader, PerkinElmer; LC-MS/MS, AB SCIEX. Method: The purpose of this study was to determine the two-way permeability of the compounds and evaluate whether they are effluxed and transported by P-glycoprotein (P-gp) using a Caco-2 monolayer cell model. In the experiment, Caco-2 cells were seeded into a 96-well cell plate and cultured for 24 consecutive days for the transport experiment. The compounds were administered bidirectionally at a concentration of 2.00 µM, with or without verapamil. After 120 min of incubation, the samples at the apical end A and the basal end B were collected. The content of the test samples in each sample was measured using the liquid chromatography-tandem mass spectrometry (LC-MS/MS) method. The apparent permeability coefficient and the efflux rate were calculated. Two experimental systems were used successively in this part, with the reference compound (PF-07104091) included. Table 4. Permeability test results

[5] = TR-FRET, peptide mix containing 10 µM ATP, 90 min at 23 °C, read-out: CDK1/Cyclin B1 IC50
[6] = TR-FRET, peptide mix containing 10 µM ATP, 90 min at 23 °C, read-out: CDK2/Cyclin E1 IC50
[7] = Caco-2, Table 5 experimental system
[8] = Caco-2, Table 4 experimental system

T1 sequence (P06493 whole entry): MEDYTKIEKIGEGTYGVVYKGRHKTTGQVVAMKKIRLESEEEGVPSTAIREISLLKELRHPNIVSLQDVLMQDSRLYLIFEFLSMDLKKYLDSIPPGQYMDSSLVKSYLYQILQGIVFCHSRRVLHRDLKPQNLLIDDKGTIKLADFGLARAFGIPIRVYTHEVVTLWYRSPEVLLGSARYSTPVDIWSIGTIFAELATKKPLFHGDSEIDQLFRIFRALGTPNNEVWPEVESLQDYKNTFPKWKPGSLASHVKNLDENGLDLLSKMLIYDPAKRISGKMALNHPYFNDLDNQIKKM
T1 sequence (P14635 whole entry partner): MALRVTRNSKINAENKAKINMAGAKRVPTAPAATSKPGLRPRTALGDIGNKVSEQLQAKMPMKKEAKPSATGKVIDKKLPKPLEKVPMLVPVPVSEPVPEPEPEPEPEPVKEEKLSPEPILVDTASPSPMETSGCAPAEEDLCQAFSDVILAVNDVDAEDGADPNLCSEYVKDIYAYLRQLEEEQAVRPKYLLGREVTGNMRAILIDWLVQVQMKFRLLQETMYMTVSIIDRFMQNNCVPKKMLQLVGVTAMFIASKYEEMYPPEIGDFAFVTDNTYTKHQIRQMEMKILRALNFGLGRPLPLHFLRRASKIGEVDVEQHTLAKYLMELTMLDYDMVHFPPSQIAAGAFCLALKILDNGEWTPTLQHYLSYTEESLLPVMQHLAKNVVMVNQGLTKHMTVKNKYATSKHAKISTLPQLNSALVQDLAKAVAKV

Compound | pIC50 (CDK1/Cyclin B; [5]) | pIC50 (CDK2/Cyclin E1; [6]) | pIC50 (HCT116 cells) | further results
CC(C)NC(=O)O[C@@H]1CC[C@H](c2cc(NC3CCN(S(C)(=O)=O)CC3)n[nH]2)C1 [Compound 8] | 5.51 |  | < 5.00 | 
CC(C)NC(=O)O[C@@H]1CC[C@H](c2cc(NC(=O)c3cc(CS(=O)(=O)C4CC4)nn3C)n[nH]2)C1 [Compound 13] |  | 8.47 | 5.67 | Remaining amount% at 60 min Human [1]: 80.0%; Remaining amount% at 60 min Rat [2]: 71.2%; pIC50 (CDK1/Cyclin B): 7.32
Cn1nc(CS(C)(=O)=O)cc1C(=O)Nc1cc([C@H]2CC[C@@H](OC(=O)N3CCC3(C)C)C2)[nH]n1 [Compound 16] |  | 9.80 | 6.07 | pIC50 (CDK1/Cyclin B): 8.51
C=C(C)c1ccncc1O[C@@H]1CC[C@H](c2cc(NC(=O)Cc3ccc(N4CCCC4=O)cc3)n[nH]2)C1 [Compound 26] | 9.57 | 9.04 | 6.41 | 
CC1(C)CCN1C(=O)O[C@@H]1CO[C@H](c2cc(NC(=O)Cc3cccc(P(C)(C)=O)c3)n[nH]2)C1 [Compound 30] |  | 8.09 |  | 
C=C(C)c1ccncc1O[C@@H]1CO[C@H](c2cc(NC(=O)Cc3cccc(P(C)(C)=O)c3)n[nH]2)C1 [Compound 31] | 6.30 | 7.63 |  | 
COCc1cc(C(=O)Nc2cnc([C@H]3CC[C@@H](OC(=O)NC(C)C)C3)s2)n(C)n1 [Compound 36] |  | < 6.00 |  | 
COCc1cc(C(=O)Nc2[nH]nc3c2C[C@@H](OC(=O)NC(C)C)CC3)n(C)n1 [Compound 41] |  | < 6.00 |  | 
COCc1cc(C(=O)Nc2nnc([C@H]3CC[C@@H](OC(=O)NC(C)C)C3)s2)n(C)n1 [Compound 42] |  | < 6.00 |  | 
CC(C)NC(=O)O[C@@H]1CC[C@H](c2cc(Nc3ccc(N4CCN(C)CC4)cn3)n[nH]2)C1 [Compound 49] |  | 7.97 | 5.89 | Papp A→B at 2 h, 2 µM [4, 7]: 2.4 ×10⁻⁶ cm/s; Papp B→A at 2 h, 2 µM [4, 7]: 12.2 ×10⁻⁶ cm/s; efflux ratio at 2 h, 2 µM [4, 7]: 5.09; pIC50 (CDK1/Cyclin B): 6.14
CC(C)NC(=O)O[C@@H]1CC[C@H](c2cc(Nc3ccc(C4CCN(C)CC4)cn3)n[nH]2)C1 [Compound 51] |  | 8.16 | 5.45 | pIC50 (CDK1/Cyclin B): 6.81
CC(C)NC(=O)O[C@@H]1CC[C@H](c2cc(Nc3ccc(N4CCN(CC(F)F)CC4)cc3)n[nH]2)C1 [Compound 127] |  | 7.90 | 5.01 | 
CC(C)NC(=O)O[C@@H]1CC[C@H](c2cc(Nc3ccc(N4CCN(CC(F)(F)F)CC4)cc3)n[nH]2)C1 [Compound 128] |  |  | 5.00 | pIC50 (CDK2/Cyclin E1): 7.89
CC(C)NC(=O)O[C@@H]1CC[C@H](c2cc(Nc3ccc(CN4CCN(C)CC4)c(F)c3)n[nH]2)C1 [Compound 134] |  | 8.67 | 5.95 | Papp A→B at 2 h, 2 µM [4, 7]: 7.08 ×10⁻⁶ cm/s; Papp B→A at 2 h, 2 µM [4, 7]: 23.4 ×10⁻⁶ cm/s; efflux ratio at 2 h, 2 µM [4, 7]: 3.3; pIC50 (CDK1/Cyclin B): 6.18
COCc1cc(C(=O)Nc2cc(C3CCC(OC(=O)NC(C)C)C3)[nH]n2)n(C)n1 (stereo not shown) [PF-07104091, reference compound] |  |  |  | Papp A→B at 2 h, 2 µM [4, 8]: 0.106 ×10⁻⁶ cm/s; Papp B→A at 2 h, 2 µM [4, 8]: 25.5 ×10⁻⁶ cm/s; efflux ratio at 2 h, 2 µM [4, 8]: 241; Papp A→B at 2 h, 2 µM [4, 7]: 4.3 ×10⁻⁶ cm/s; Papp B→A at 2 h, 2 µM [4, 7]: 37 ×10⁻⁶ cm/s; efflux ratio at 2 h, 2 µM [4, 7]: 8.57

More lines, main results first:

pIC50 (CDK1/Cyclin B; [5]) | pIC50 (CDK2/Cyclin E1; [6]) | Compound | pIC50 (HCT116 cells) | further results
6.07 |  | COCc1cc(C(=O)Nc2cc([C@H]3CC[C@@H](OC(=O)NC(C)(C)C#N)C3)[nH]n2)n(C)n1 [Compound 5] | < 5.00 | 
 | 8.06 | COCc1cc(C(=O)Nc2cc([C@H]3CC[C@@H](OC(=O)N4CC5(CCN(C)CC5)C4)C3)[nH]n2)n(C)n1 [Compound 10] | 5.15 | Remaining amount% at 60 min Human [1]: 103%; Remaining amount% at 60 min Rat [2]: 92%; Remaining amount% at 60 min Dog [3]: 95%
 | 8.97 | COCc1cc(C(=O)Nc2cc([C@H]3C[C@@H](F)[C@@H](OC(=O)NC(C)C)C3)[nH]n2)n(C)n1 [Compound 11] | 5.79 | Remaining amount% at 60 min Human [1]: 105%; Remaining amount% at 60 min Rat [2]: 104%; Remaining amount% at 60 min Dog [3]: 99%
7.55 | 9.21 | CCS(=O)(=O)Cc1cc(C(=O)Nc2cc([C@H]3CC[C@@H](OC(=O)NC(C)C)C3)[nH]n2)n(C)n1 [Compound 12] | 5.73 | 
5.73 | 8.30 | CC1(C)CCN1C(=O)O[C@@H]1CC[C@H](c2cc(NC(=O)Cc3cccc(P(C)(C)=O)c3)n[nH]2)C1 [Compound 23] |  | 
6.23 | 8.59 | CC1(C)CCN1C(=O)O[C@@H]1CC[C@H](c2cc(NC(=O)Cc3ccc(N4CCCC4=O)cc3)n[nH]2)C1 [Compound 24] |  | Remaining amount% at 60 min Human [1]: 15.4%; Remaining amount% at 60 min Rat [2]: 22.8%
7.95 | 8.51 | C=C(C)c1ccncc1O[C@@H]1CC[C@H](c2cc(NC(=O)Cc3cccc(P(C)(C)=O)c3)n[nH]2)C1 [Compound 25] |  | 
5.99 | 8.26 | CC(C)NC(=O)O[C@@H]1CC[C@H](c2cc(Nc3ccc(CN4CCNCC4)cc3)n[nH]2)C1 [Compound 136] | 5.07 | 
6.01 | 8.43 | CCN1CCN(Cc2ccc(Nc3cc([C@H]4CC[C@@H](OC(=O)NC(C)C)C4)[nH]n3)cc2)CC1 [Compound 137] | 5.82 | 
